Test results taken from ChEMBL document CHEMBL4673302, “Efficient synthesis and antitumor evaluation of 4-aminomethyl-N-arylpyrazoles: Discovery of potent and selective agents for ovarian cancer” (Bioorg Med Chem, 2021).

Legend:
[1] = (§1) Cytotoxicity against human HaCaT cells assessed as cell growth inhibition measured after 48 hrs by sulforhodamine B assay; format: cell-based; settings: HaCaT cells
U-251 = assay: Anticancer activity against human U-251 cells assessed as cell growth inhibition measured after 48 hrs by sulforhodamine B assay; format: functional
K562 = assay: Anticancer activity against human K562 cells assessed as cell growth inhibition measured after 48 hrs by sulforhodamine B assay; format: functional
PC-3 = assay: Anticancer activity against human PC-3 cells assessed as cell growth inhibition measured after 48 hrs by sulforhodamine B assay; format: functional
786-0 = assay: Anticancer activity against human 786-0 cells assessed as cell growth inhibition measured after 48 hrs by sulforhodamine B assay; format: functional
HT-29 = assay: Anticancer activity against human HT-29 cells assessed as cell growth inhibition measured after 48 hrs by sulforhodamine B assay; format: functional
NCI-H460 = assay: Anticancer activity against human NCI-H460 cells assessed as cell growth inhibition measured after 48 hrs by sulforhodamine B assay; format: functional
MCF7 = assay: Anticancer activity against human MCF7 cells assessed as cell growth inhibition measured after 48 hrs by sulforhodamine B assay; format: functional
OVCAR-3 = assay: Anticancer activity against human OVCAR-3 cells assessed as cell growth inhibition measured after 48 hrs by sulforhodamine B assay; format: functional
HaCaT = assay: as §1; format: cell-based; settings: hacat, 48 h

Structure (SMILES) | GI50 (U-251; Homo sapiens, U-251, 48 h) | GI50 (K562; Homo sapiens, K562, 48 h) | GI50 (PC-3; Homo sapiens, PC-3, 48 h) | GI50 (786-0; Homo sapiens, 786-0, 48 h) | GI50 (HT-29; Homo sapiens, HT-29, 48 h) | GI50 (NCI-H460; Homo sapiens, NCI-H460, 48 h) | GI50 (MCF7; Homo sapiens, MCF7, 48 h) | GI50 (OVCAR-3; Homo sapiens, OVCAR-3, 48 h) | GI50 (K562; 48 h) | GI50 (786-0; 48 h) | GI50 (NCI-H460; 48 h) | GI50 (MCF7; 48 h) | GI50 (OVCAR-3; 48 h) | GI50 (U-251; 48 h) | GI50 (PC-3; 48 h) | GI50 (HT-29; 48 h) | GI50 at 48 h [1] | GI50 (HaCaT)
CCOC(=O)c1nn(-c2ccc(Cl)cc2)c(-c2ccccc2)c1CNC(C)(C)C | > 608 µM |  | > 608 µM | > 608 µM | 336 µM | > 608 µM | > 608 µM | > 608 µM | 64.5 µM |  |  |  |  |  |  |  | > 608 µM | 
CCOC(=O)c1nn(-c2ccc(Cl)cc2)c(-c2ccc(Br)cc2)c1CNC(C)(C)C | > 511 µM | > 511 µM | > 511 µM | > 511 µM | > 511 µM | > 511 µM | > 511 µM | > 511 µM |  |  |  |  |  |  |  |  | > 511 µM | 
COc1ccc(-c2c(CNC(C)(C)C)c(C(=O)O)nn2-c2ccccc2)cc1 | > 659 µM | > 659 µM | > 659 µM | > 659 µM | > 659 µM | > 659 µM | > 659 µM | > 659 µM |  |  |  |  |  |  |  |  | > 659 µM | 
Cc1ccc(-c2c(CNC(C)(C)C)c(C(=O)O)nn2-c2ccccc2)cc1 | > 688 µM | > 688 µM | > 688 µM | > 688 µM | > 688 µM | > 688 µM | > 688 µM | 283 µM |  |  |  |  |  |  |  |  | > 688 µM | 
CC(C)(C)NCc1c(C(=O)O)nn(-c2ccccc2)c1-c1ccccc1 | > 716 µM | > 716 µM | > 716 µM | > 716 µM | > 716 µM | > 716 µM | > 716 µM | > 716 µM |  |  |  |  |  |  |  |  | > 716 µM | 
CC(C)(C)NCc1c(C(=O)O)nn(-c2ccccc2)c1-c1ccc(F)cc1 | > 681 µM | > 681 µM | > 681 µM | > 681 µM | > 681 µM | > 681 µM | > 681 µM |  |  |  |  |  |  |  |  |  | > 681 µM | 
CC(C)(C)NCc1c(C(=O)O)nn(-c2ccccc2)c1-c1ccc(Br)cc1 | 126 µM | > 585 µM | > 585 µM | > 585 µM | > 585 µM | > 585 µM | 293 µM | > 585 µM |  |  |  |  |  |  |  |  | 366 µM | 
CCOC(=O)c1nn(-c2ccccc2)c(-c2ccc([N+](=O)[O-])cc2)c1CNC(C)(C)C |  |  |  |  |  | 429 µM | 206 µM |  | 12 µM | 200 µM |  |  | 8.78 µM | 220 µM | > 592 µM | 71.3 µM | 103 µM | 
COc1cccc2c1C(=O)c1c(O)c3c(c(O)c1C2=O)C[C@@](O)(C(=O)CO)C[C@@H]3O[C@H]1C[C@H](N)[C@H](O)[C@H](C)O1 [DOXORUBICIN] | < 0.046 µM | 0.06 µM | 0.42 µM |  | 0.26 µM | < 0.046 µM | < 0.046 µM | 0.09 µM |  |  |  |  |  |  |  |  | < 0.046 µM | 

Further lines, with some results ahead:

GI50 (U-251; Homo sapiens, U-251, 48 h) | GI50 (K562; Homo sapiens, K562, 48 h) | GI50 (PC-3; Homo sapiens, PC-3, 48 h) | GI50 (786-0; Homo sapiens, 786-0, 48 h) | GI50 (HT-29; Homo sapiens, HT-29, 48 h) | GI50 (NCI-H460; Homo sapiens, NCI-H460, 48 h) | GI50 (MCF7; Homo sapiens, MCF7, 48 h) | GI50 (OVCAR-3; Homo sapiens, OVCAR-3, 48 h) | GI50 (K562; 48 h) | GI50 (786-0; 48 h) | GI50 (NCI-H460; 48 h) | GI50 (MCF7; 48 h) | GI50 (OVCAR-3; 48 h) | GI50 (U-251; 48 h) | GI50 (PC-3; 48 h) | GI50 (HT-29; 48 h) | Structure (SMILES) | GI50 at 48 h [1] | GI50 (HaCaT)
> 584 µM | 158 µM | > 584 µM | 104 µM | > 584 µM | 141 µM | 550 µM | 162 µM |  |  |  |  |  |  |  |  | CC(C)(C)NCc1c(C(=O)O)nn(-c2ccc(Cl)cc2)c1-c1ccc([N+](=O)[O-])cc1 | > 584 µM | 
498 µM | > 605 µM | > 605 µM | > 605 µM | > 605 µM | > 605 µM | 220 µM | 121 µM |  |  |  |  |  |  |  |  | COc1ccc(-c2c(CNC(C)(C)C)c(C(=O)O)nn2-c2ccc(Cl)cc2)cc1 | 121 µM | 
> 548 µM |  | > 548 µM |  | 42.3 µM |  |  |  | 181 µM | 316 µM | > 548 µM | > 548 µM | 206 µM |  |  |  | CCOC(=O)c1nn(-c2ccc(Cl)cc2)c(-c2ccc([N+](=O)[O-])cc2)c1CNC(C)(C)C |  | 10.3 µM
> 634 µM | > 634 µM | > 634 µM | > 634 µM | > 634 µM | > 634 µM | > 634 µM | > 634 µM |  |  |  |  |  |  |  |  | CC(C)(C)NCc1c(C(=O)O)nn(-c2ccccc2)c1-c1ccc([N+](=O)[O-])cc1 | > 634 µM | 
518 µM | 290 µM | > 599 µM | > 599 µM | > 599 µM | > 599 µM | 246 µM | 84.9 µM |  |  |  |  |  |  |  |  | CC(C)(C)NCc1c(C(=O)O)nn(-c2ccc(Cl)cc2)c1-c1ccc(Cl)cc1 | 87.5 µM | 
> 630 µM | > 630 µM | > 630 µM | > 630 µM | > 630 µM | > 630 µM | > 630 µM | > 630 µM |  |  |  |  |  |  |  |  | Cc1ccc(-c2c(CNC(C)(C)C)c(C(=O)O)nn2-c2ccc(Cl)cc2)cc1 | > 630 µM | 
> 652 µM | > 652 µM | > 652 µM | > 652 µM | > 652 µM | > 652 µM | 496 µM | 652 µM |  |  |  |  |  |  |  |  | CC(C)(C)NCc1c(C(=O)O)nn(-c2ccc(Cl)cc2)c1-c1ccccc1 | 175 µM | 
> 623 µM | > 623 µM | > 623 µM | 204 µM | > 623 µM | > 623 µM | 270 µM | 116 µM |  |  |  |  |  |  |  |  | CC(C)(C)NCc1c(C(=O)O)nn(-c2ccc(Cl)cc2)c1-c1ccc(F)cc1 | 28.7 µM | 
> 652 µM | 364 µM | 145 µM | > 652 µM | 353 µM | 70.5 µM | > 652 µM | > 652 µM |  |  |  |  |  |  |  |  | CC(C)(C)NCc1c(C(=O)O)nn(-c2ccccc2)c1-c1ccc(Cl)cc1 | > 652 µM | 
> 542 µM | 297 µM | > 542 µM | 542 µM | > 542 µM | > 542 µM | 221 µM | 513 µM |  |  |  |  |  |  |  |  | CC(C)(C)NCc1c(C(=O)O)nn(-c2ccc(Cl)cc2)c1-c1ccc(Br)cc1 | > 542 µM | 
